Data published in the NIST ThermoML archive (doi:10.1021/je060472e).
Values joined by “and” are separate entries in the source; they are usually repeats but may differ in a detail not shown here. Equal values may be shown once. Numbers after ± are expanded uncertainties.

Assays:
[1] = Molar enthalpy of transition or fusion; conditions: Crystal; DSC
[2] = for vapor or sublimation pressure: Closed cell (Static) method; for Normal melting temperature: DTA

COC(=O)c1cccnc1 [3-pyridinecarboxylic acid methyl ester]
Conditions | Molar enthalpy of transition or fusion [kcal/mol]
[1] | 4.61 ± 0.167

vapor or sublimation pressure, [2]
Conditions | Crystal | Liquid
273.23 K | 0.000651 ± 9.6e-05 kPa and 0.000658 ± 9.6e-05 kPa | –
278.2 K | 0.001228 ± 0.00011 kPa and 0.001214 ± 0.00011 kPa | –
283.18 K | 0.002269 ± 0.00013 kPa | –
283.19 K | 0.002282 ± 0.00013 kPa and 0.002271 ± 0.00013 kPa | –
288.16 K | 0.00406 ± 0.00019 kPa and 0.004076 ± 0.00019 kPa | –
293.16 K | 0.007304 ± 0.0003 kPa and 0.007318 ± 0.0003 kPa | –
298.14 K | 0.0127 ± 0.00051 kPa | 0.01819 ± 0.00059 kPa
298.15 K | – | 0.01819 ± 0.00059 kPa
298.16 K | 0.01269 ± 0.00051 kPa | –
303.13 K | – | 0.02715 ± 0.00073 kPa and 0.02712 ± 0.00073 kPa
303.14 K | 0.0216 ± 0.00065 kPa and 0.02159 ± 0.00065 kPa | –
305.12 K | – | 0.03186 ± 0.0008 kPa
305.13 K | – | 0.03188 ± 0.0008 kPa
307.11 K | – | 0.03712 ± 0.00088 kPa and 0.03709 ± 0.00088 kPa
308.1 K | 0.03586 ± 0.00087 kPa | –
308.11 K | 0.03587 ± 0.00087 kPa | –
309.1 K | – | 0.0431 ± 0.00098 kPa and 0.04306 ± 0.00098 kPa
310.6 K | 0.04566 ± 0.001 kPa | –
310.61 K | 0.04595 ± 0.001 kPa and 0.04557 ± 0.001 kPa | –
311.07 K | – | 0.0502 ± 0.0011 kPa
311.08 K | – | 0.05006 ± 0.0011 kPa
313.07 K | – | 0.05817 ± 0.0012 kPa
313.08 K | – | 0.05817 ± 0.0012 kPa
315.06 K | – | 0.06722 ± 0.0014 kPa
315.07 K | – | 0.06704 ± 0.0014 kPa
317.04 K | – | 0.07707 ± 0.0015 kPa
317.05 K | – | 0.07715 ± 0.0015 kPa
318.08 K | – | 0.08317 ± 0.0016 kPa
318.11 K | – | 0.0833 ± 0.0016 kPa
319.09 K | – | 0.08886 ± 0.0017 kPa
321.08 K | – | 0.102 ± 0.0019 kPa and 0.103 ± 0.0019 kPa
323.09 K | – | 0.1177 ± 0.0021 kPa
324.06 K | – | 0.1247 ± 0.0022 kPa and 0.1246 ± 0.0022 kPa

Conditions | Normal melting temperature [°C]
[2], Crystal | 39.5 ± 0.4

COC(=O)c1ccccn1 [methyl 2-pyridinecarboxylate]
Conditions | Molar enthalpy of transition or fusion [kcal/mol]
[1] | 4.02 ± 0.0956

vapor or sublimation pressure, [2]
Conditions | Crystal | Liquid
273.21 K | – | 0.00051 ± 9.4e-05 kPa and 0.000505 ± 9.4e-05 kPa
278.18 K | – | 0.00086 ± 0.0001 kPa and 0.000856 ± 0.0001 kPa
278.2 K | 0.000582 ± 9.6e-05 kPa and 0.00058 ± 9.6e-05 kPa | –
280.67 K | 0.000793 ± 0.0001 kPa | –
280.68 K | 0.000794 ± 0.0001 kPa | –
283.15 K | 0.001087 ± 0.00011 kPa | 0.001403 ± 0.00011 kPa
283.16 K | 0.001086 ± 0.00011 kPa | 0.001399 ± 0.00011 kPa
285.65 K | 0.001476 ± 0.00011 kPa and 0.001472 ± 0.00011 kPa | –
288.13 K | – | 0.002242 ± 0.00013 kPa
288.14 K | 0.001988 ± 0.00013 kPa | 0.002246 ± 0.00013 kPa
288.15 K | 0.001989 ± 0.00013 kPa | –
290.63 K | 0.002681 ± 0.00015 kPa | –
290.65 K | 0.002682 ± 0.00015 kPa | –
293.12 K | – | 0.00357 ± 0.00017 kPa
293.13 K | – | 0.003566 ± 0.00017 kPa
298.15 K | – | 0.005628 ± 0.00024 kPa and 0.005601 ± 0.00024 kPa
303.15 K | – | 0.008522 ± 0.00035 kPa and 0.008506 ± 0.00035 kPa
308.08 K | – | 0.0128 ± 0.00051 kPa
308.11 K | – | 0.01279 ± 0.00051 kPa
313.12 K | – | 0.01919 ± 0.00061 kPa
313.13 K | – | 0.01916 ± 0.00061 kPa
318.09 K | – | 0.02771 ± 0.00074 kPa and 0.02763 ± 0.00074 kPa
323.05 K | – | 0.03968 ± 0.00092 kPa
328.04 K | – | 0.05628 ± 0.0012 kPa and 0.05632 ± 0.0012 kPa
333.01 K | – | 0.0787 ± 0.0015 kPa
333.02 K | – | 0.07876 ± 0.0015 kPa
337.99 K | – | 0.1088 ± 0.002 kPa
340.47 K | – | 0.127 ± 0.0023 kPa

Conditions | Normal melting temperature [°C]
[2], Crystal | 16.1 ± 0.5

COC(=O)c1ccncc1 [methyl 4-pyridinecarboxylate]
Conditions | Molar enthalpy of transition or fusion [kcal/mol]
[1] | 3.49 ± 0.167

[2], Liquid
Conditions | vapor or sublimation pressure
273.26 K | 0.002588 ± 0.00014 kPa
275.74 K | 0.003349 ± 0.00016 kPa and 0.003323 ± 0.00016 kPa
278.22 K | 0.004243 ± 0.00019 kPa
278.23 K | 0.004253 ± 0.00019 kPa
280.71 K | 0.005373 ± 0.00023 kPa and 0.005383 ± 0.00023 kPa
283.19 K | 0.006753 ± 0.00028 kPa
285.66 K | 0.008443 ± 0.00034 kPa
288.16 K | 0.01054 ± 0.00042 kPa
290.65 K | 0.01308 ± 0.00051 kPa
293.15 K | 0.01615 ± 0.00056 kPa
293.16 K | 0.01617 ± 0.00056 kPa
295.65 K | 0.0199 ± 0.00062 kPa
298.13 K | 0.02427 ± 0.00069 kPa
298.14 K | 0.02428 ± 0.00069 kPa
300.63 K | 0.0296 ± 0.00077 kPa and 0.02961 ± 0.00077 kPa
303.12 K | 0.03595 ± 0.00087 kPa
303.13 K | 0.03597 ± 0.00087 kPa
305.62 K | 0.04347 ± 0.00098 kPa
305.63 K | 0.04348 ± 0.00098 kPa
308.09 K | 0.05219 ± 0.0011 kPa
310.59 K | 0.06266 ± 0.0013 kPa
310.6 K | 0.0627 ± 0.0013 kPa
313.07 K | 0.07495 ± 0.0015 kPa and 0.0749 ± 0.0015 kPa
315.54 K | 0.08924 ± 0.0017 kPa
315.56 K | 0.08934 ± 0.0017 kPa
318.03 K | 0.1062 ± 0.002 kPa
320.52 K | 0.1256 ± 0.0023 kPa

Conditions | Normal melting temperature [°C]
[2], Crystal | 10.2 ± 0.9
